Assay results reported in patent publication US11440884B2, “Compounds, salts thereof and methods for treatment of diseases” (ACADIA PHARMACEUTICALS INC., priority 2017, dated 2022).

Each molecule was assayed against 5-HT2A receptor (Homo sapiens (Human), UniProt P28223) (assay: Receptor Selection and Amplification (R-SAT) functional antagonist assay). Settings: not given.
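Further: Read-out is β-galactosidase marker gene activity with ONPG substrate, measured after five days of growth in 96-well plates holding the test compound.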

Chain of 5-HT2A receptor (P28223 whole entry): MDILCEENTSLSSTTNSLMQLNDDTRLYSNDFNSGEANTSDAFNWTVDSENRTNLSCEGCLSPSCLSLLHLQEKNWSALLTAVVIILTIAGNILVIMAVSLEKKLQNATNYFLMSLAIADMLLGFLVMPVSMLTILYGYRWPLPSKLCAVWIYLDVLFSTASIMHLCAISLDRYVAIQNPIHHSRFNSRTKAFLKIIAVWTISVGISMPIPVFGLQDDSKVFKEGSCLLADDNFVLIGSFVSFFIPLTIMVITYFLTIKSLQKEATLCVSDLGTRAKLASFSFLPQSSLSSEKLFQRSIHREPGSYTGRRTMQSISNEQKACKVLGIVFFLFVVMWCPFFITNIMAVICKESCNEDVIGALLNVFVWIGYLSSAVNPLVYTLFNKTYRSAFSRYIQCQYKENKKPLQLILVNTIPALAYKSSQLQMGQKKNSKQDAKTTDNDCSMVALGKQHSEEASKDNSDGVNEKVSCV

Row | Compound | Ki [nM] | 5-HT2a pKi
1 | CC(C)COc1ccc(CCOC(=O)N(Cc2ccc(F)cc2)[C@H]2CCN(C)C[C@H]2F)cc1 (racemic) [10a/10b, 2-[4-(2-methylpropoxy)phenyl]ethyl N-[(3R,4S)-3-fluoro-1-methylpiperidin-4-yl]-N-[(4-fluorophenyl)methyl]carbamate (10a) and 2-[4-(2-methyl-propoxy)phenyl]ethyl N-[(3S,4R)-3-fluoro-1-methylpiperidin-4-yl]-N-[(4-fluorophenyl)-methyl]carbamate (10b)] | 15.8 | –
2 | CN1CCC(N(Cc2ccc(F)cc2F)C(=O)OCc2ccc(OC(CF)CF)cc2)CC1.O=C(O)C(F)(F)F [Compound 28, 4-((1,3-difluoropropan-2-yl)oxy)benzyl (2,4-difluorobenzyl)(1-methylpiperidin-4-yl)carbamate; trifluoroacetic acid] | – | 10.1
3 | COc1ccc(CN(C(=O)OCc2ccc(OC(C)C)cc2)C2CCN(C)CC2)c(Cl)c1.O=C(O)C(F)(F)F [Compound 57, [4-(propan-2-yloxy)phenyl]methyl N-[(2-chloro-4-methoxy-phenyl)methyl]-N-(1-methylpiperidin-4-yl)carbamate; trifluoroacetic acid] | – | 7.8
4 | CCOc1ccc(CC(=O)N(Cc2ccc(F)cc2F)C2CCN(C)CC2)cc1.O=C(O)C(F)(F)F [Compound 23, N-(2,4-difluorobenzyl)-2-(4-ethoxyphenyl)-N-(1-methylpiperidin-4-yl)acetamide; trifluoroacetic acid] | – | 7.8
5 | COc1ccc(CN(C(=O)OCc2ccc(OC(C)C)cc2)C2CCN(C)CC2)c(F)c1 [Compound 41, [4-(propan-2-yloxy)phenyl]methyl N-[(2-fluoro-4-methoxyphenyl)-methyl]-N-(1-methylpiperidin-4-yl)carbamate] | 2.51 | –
6 | CC(C)COc1ccc(COC(=O)N(Cc2ccc(F)cc2)[C@H]2CCN(C)C[C@H]2F)cc1 (racemic) [6a/6b, [4-(2-methylpropoxy)phenyl]methyl N-[(3R,4S)-3-fluoro-1-methylpiperidin-4-yl]-N-[(4-fluorophenyl)methyl]carbamate (6a) and [4-(2-methylpropoxy)phenyl]methyl N-[(3S,4R)-3-fluoro-1-methylpiperidin-4-yl]-N-[(4-fluorophenyl)methyl]carbamate (6b)] | 0.251 | –
7 | CC(C)Oc1ccc(COC(=O)N(Cc2ccc(C(F)(F)F)cc2Cl)C2CCN(C)CC2)cc1.O=C(O)C(F)(F)F [Compound 78] | – | 7.6
8 | CC(C)Oc1ccc(CC(=O)N(Cc2ccc(F)c(F)c2F)C2CCN(C)CC2)cc1.O=C(O)C(F)(F)F [Compound 34, N-(1-methylpiperidin-4-yl)-2-[4-(propan-2-yloxy)phenyl]-N-[(2,3,4-trifluorophenyl)methyl]acetamide; trifluoroacetic acid] | – | 7.4
9 | CC(=O)O.COc1cc(F)c(CN(C(=O)OCc2ccc(OCC(C)C)cc2)C2CCN(C)CC2)c(F)c1 [Compound 36, [4-(2-methylpropoxy)phenyl]methyl N-[(2,6-difluoro-4-methoxyphenyl)methyl]-N-(1-methylpiperidin-4-yl)carbamate; acetic acid] | – | 9.0
10 | CC(C)Oc1ccc(COC(=O)N(Cc2ccc(F)cc2F)C2CCNCC2)cc1.O=C(O)C(F)(F)F [Compound 11, [4-(propan-2-yloxy)phenyl]methyl N-[(2,4-difluorophenyl)methyl]-N-(piperidin-4-yl)carbamate] | – | 9.6

Same assay, conditions: R-SAT, transfected NIH3T3 cells; guidance: high affinity pKi≥8.4, moderate affinity pKi≥7.7

Row | Compound | 5-HT2a pKi
11 | CC(C)Oc1ccc(COC(=O)N(Cc2ccc(Cl)cc2F)C2CCN(C)CC2)cc1 [Compound 38, [4-(propan-2-yloxy)phenyl]methyl N-[(4-chloro-2-fluorophenyl)-methyl]-N-(1-methylpiperidin-4-yl)carbamate] | 9.3
12 | COc1ccc(CN(C(=O)Cc2ccc(OCC(C)C)cc2)C2CCN(C)CC2)c(Cl)c1.O=C(O)C(F)(F)F [Compound 53, N-[(2-chloro-4-methoxyphenyl)methyl]-N-(1-methylpiperidin-4-yl)-2-[4-(2-methylpropoxy)phenyl]acetamide; trifluoroacetic acid] | 6.9
13 | CCN1CCC(N(Cc2ccc(F)cc2F)C(=O)OCc2ccc(OC(C)C)cc2)CC1 [Compound 44, [4-(propan-2-yloxy)phenyl]methyl N-[(2,4-difluorophenyl)methyl]-N-(1-ethylpiperidin-4-yl)carbamate] | 9.4
14 | CC(C)COc1ccc(CC(=O)N(Cc2ccc(F)cc2F)C2CCN(C)CC2)cc1.O=C(O)C(F)(F)F [Compound 22, N-(2,4-difluorobenzyl)-2-(4-isobutoxyphenyl)-N-(1-methylpiperidin-4-yl)acetamide; trifluoroacetic acid] | 8.2
15 | CC(C)COc1ccc(COC(=O)N(Cc2ccc(F)c(F)c2F)C2CCN(C)CC2)cc1 [Compound 37, [4-(2-methylpropoxy)phenyl]methyl N-(1-methylpiperidin-4-yl)-N-[(2,3,4-trifluorophenyl)methyl]carbamate] | 8.9
16 | CC(C)COc1ccc(COC(=O)N(Cc2ccc(F)cc2F)C2CCN(C)CC2)cc1 [Compound 14, [4-(2-methylpropoxy)phenyl]methyl N-[(2,4-difluorophenyl)methyl]-N-(1-methylpiperidin-4-yl)carbamate] | 7.6
17 | CC(C)Oc1ccc(COC(=O)N(Cc2ccc(F)cc2F)C2CCN(CC(C)(C)C(=O)O)CC2)cc1 [Compound 43, 3-(4-{[(2,4-difluorophenyl)methyl]({[4-(propan-2-yloxy)phenyl]-methoxy}carbonyl)amino}piperidin-1-yl)-2,2-dimethylpropanoic acid] | 8.5
18 | CN1CCC(N(Cc2ccc(F)cc2F)C(=O)OCc2ccc(OCCF)cc2)CC1 [Compound 39, [4-(2-fluoroethoxy)phenyl]methyl N-[(2,4-difluorophenyl)methyl]-N-(1-methylpiperidin-4-yl)carbamate] | 9.8
19 | CC(C)COc1ccc(CC(=O)N(Cc2ccc(F)cc2)C2CCN(C)CC2)c(F)c1.O=C(O)C(F)(F)F [Compound 20, 2-[2-fluoro-4-(2-methylpropoxy)phenyl]-N-[(4-fluorophenyl)methyl]-N-(1-methylpiperidin-4-yl)acetamide; trifluoroacetic acid] | 8.2
20 | CC(C)Oc1ccc(COC(=O)N(Cc2ccc(F)cc2F)C2CCN(C3CC3)CC2)cc1 [Compound 45, [4-(propan-2-yloxy)phenyl]methyl N-(1-cyclopropylpiperidin-4-yl)-N-[(2,4-difluorophenyl)methyl]carbamate] | 8.6
21 | Cc1c(F)ccc(CN(C(=O)OCc2ccc(OC(C)C)cc2)C2CCN(C)CC2)c1F [Compound 67, [4-(propan-2-yloxy)phenyl]methyl N-[(2,4-difluoro-3-methylphenyl)methyl]-N-(1-methylpiperidin-4-yl)carbamate] | 10.0
22 | CC(C)COc1ccc(CC(=O)N(Cc2ccc(F)cc2Cl)C2CCN(C)CC2)cc1.O=C(O)C(F)(F)F [Compound 61, N-[(2-chloro-4-fluorophenyl)methyl]-N-(1-methylpiperidin-4-yl)-2-[4-(2-methylpropoxy)phenyl]acetamide; trifluoroacetic acid] | 6.7
23 | CC(C)Oc1ccc(CC(=O)N(Cc2ccc(F)cc2F)C2CCN(C)CC2)cc1.O=C(O)C(F)(F)F [Compound 19, N-[(2,4-difluorophenyl)methyl]-N-(1-methylpiperidin-4-yl)-2-[4-(propan-2-yloxy)phenyl]acetamide; trifluoroacetic acid] | 8.3
24 | CC(C)Oc1ccc(COC(=O)N(Cc2ccc(C(F)(F)F)cc2F)C2CCN(C)CC2)cc1.O=C(O)C(F)(F)F [Compound 79] | 8.4
25 | CC(C)Oc1ccc(COC(=O)N(Cc2ccc(F)cc2F)C2CCN(C3COC3)CC2)cc1 [Compound 46, [4-(propan-2-yloxy)phenyl]methyl N-[(2,4-difluorophenyl)methyl]-N-[1-(oxetan-3-yl)piperidin-4-yl]carbamate] | 7.6
26 | COc1ccc(COC(=O)N(Cc2ccc(F)cc2F)C2CCN(C)CC2)cc1 [Compound 15, (4-methoxyphenyl)methyl N-[(2,4-difluorophenyl)methyl]-N-(1-methylpiperidin-4-yl)carbamate] | 9.3
27 | CCOc1ccc(COC(=O)N(Cc2ccc(F)cc2F)C2CCN(C)CC2)cc1 [Compound 25, 4-ethoxybenzyl (2,4-difluorobenzyl)(1-methylpiperidin-4-yl)carbamate] | 9.7
28 | CC(C)Oc1ccc(COC(=O)N(Cc2ccc(F)cc2F)C2CCN(C)CC2)cc1 [Compound 13, [4-(propan-2-yloxy)phenyl]methyl N-[(2,4-difluorophenyl)methyl]-N-(1-methylpiperidin-4-yl)carbamate] | 9.9
29 | CC(C)Oc1ccc(CC(=O)N(Cc2ccc(F)cc2Cl)C2CCN(C)CC2)cc1.O=C(O)C(F)(F)F [Compound 62, N-[(2-chloro-4-fluorophenyl)methyl]-N-(1-methylpiperidin-4-yl)-2-[4-(propan-2-yloxy)phenyl]acetamide; trifluoroacetic acid] | 6.5
30 | Cc1ccc(CN(C(=O)OCc2ccc(OC(C)C)cc2)C2CCN(C)CC2)c(F)c1 [Compound 68, [4-(propan-2-yloxy)phenyl]methyl N-[(2-fluoro-4-methylphenyl)-methyl]-N-(1-methylpiperidin-4-yl)carbamate] | 7.3
31 | CC(C)Oc1ccc(COC(=O)N(Cc2cc(F)c(F)cc2F)C2CCN(C)CC2)cc1 [Compound 80] | 7.8
32 | C=CCOc1ccc(COC(=O)N(Cc2ccc(F)cc2F)C2CCN(C)CC2)cc1 [Compound 26, 4-(allyloxy)benzyl (2,4-difluorobenzyl)(1-methylpiperidin-4-yl)carbamate] | 9.3
33 | CC(C)Oc1ccc(CC(=O)N(Cc2ccc(Cl)cc2Cl)C2CCN(C)CC2)cc1.O=C(O)C(F)(F)F [Compound 60, N-[(2,4-dichlorophenyl)methyl]-N-(1-methylpiperidin-4-yl)-2-[4-(propan-2-yloxy)phenyl]acetamide; trifluoroacetic acid] | 6.5
